# Article PMC9101188, “Human α-Defensin-6 Neutralizes Clostridioides difficile Toxins TcdA and TcdB by Direct Binding” (International Journal of Molecular Sciences, 2022)
# No end group written: not given here.
# Experiments:
# TcdA, TcdB and CDT = conditions: ref [25],[26]; cited from earlier work
# Excerpt: (§1) The benchmark for treating CDIs is still the use of some specific antibiotics such as vancomycin, metronidazole or fidaxomicin [20]. More and more attention is also being paid to the direct inactivation of the secreted toxins, for example by using anti-toxin-antibodies such as bezlotoxumab or actoxumab. Following the approach of directly inactivating the secreted toxins and based on previous findings of our group and of others, we investigated the effects of human endogenous antimicrobial peptides on the C. difficile toxins TcdA and TcdB. Here, of particular interest is the group ...
# bacterial protein toxins = conditions: ref [51]; cited from earlier work
# Excerpt: There is increasing evidence that α-def-6 represents an outlier among the α-defensins, which is also noticeable in the context of bacterial toxins. Anti-toxin activities have already been described for several α-defensins.
# TcdB [1] = conditions: SPR, β-def-1 6 µM (control); pH 7.0, 25 °C, 25 µL/min, 4 min injection
# Method: (A) 2400 RUs of biotinylated TcdB were immobilized via streptavidin-biotin binding onto a streptavidin sensor chip, and α-def-6 (concentrations as indicated) was applied to the chip for 4 min followed by a dissociation phase with a flow of running buffer. A solution of 6 µM of α-def-6 was injected twice to assess reproducibility, and β-def-1 (6 µM) served as a control. The flow rate was 25 µL/min.
# TcdB was biotinylated via EZ-Link^TM Sulfo-NHS-Biotin (Thermo Fisher Scientific, Waltham, MA, USA) according to the manufacturer’s protocol. Briefly, TcdB was incubated with Sulfo-NHS-Biotin for 30 min at room temperature (RT). To remove the excess non-reacted biotin, TcdB was rebuffered with a Zeba^TM Spin Desalting Column (Thermo Fisher Scientific, Waltham, MA, USA). The successful biotinylation was verified via Western blotting and detection with peroxidase-conjugated streptavidin (1:2500, F. Hoffmann-La Roche AG, Basel, Switzerland).
# The binding of α-def-6 to biotinylated TcdB was analyzed via surface plasmon resonance spectroscopy (SPR) with a Reichert SPR7500DC SPR spectrometer (Reichert Technologies, Buffalo, NY, USA). All analytes were dialyzed in running buffer (10 mM HEPES, 150 mM NaCl, 50 µM EDTA, 0.005% (v/v) Tween®20, pH 7.0) beforehand. Experiments were performed with a flow rate of 25 µL/min at 25 °C. […]
# [2] = tested on: bacterial toxins including TcdB; conditions: cited from earlier work
# glucosyltransferase = conditions: control in UDP-Glo assay at 10 mM; ref [29]; cited from earlier work
# Method: Based on the finding that TcdB directly binds to α-def-6 in vitro, a set of experiments was performed to investigate the consequences of this interaction for TcdB. Although α-def-6 and TcdB interact directly, the release of the glucosyltransferase domain by the autoprotease domain in the presence of inositol hexakisphosphate (InsP6) was not affected (Figure 1B).
# TcdB autoprotease domain = experiment: In vitro autoprocessing of TcdB (InsP6-induced autoprotease activity); format: biochemical, C. difficile VPI 10463; conditions: NEM 1 mM; TcdB 2 µg, InsP6 1 mM; 1 h, 37 °C, pH 7.4 (n = 2)
# Method: (§2) The flow rate was 25 µL/min. […] A representative gel is shown (n = 2). […] GAPDH served as the loading control. A representative Western blot is shown.
# The effects of α-def-6 on TcdB autoprocessing by its intrinsic cysteine protease activity were analyzed. […] Inositol hexakisphosphate (1 mM, Santa Cruz Biotechnology, Dallas, TX, USA) was added to the samples to induce autoprocessing. N-Ethylmaleimide (1 mM, Sigma Aldrich by Merck KGaA, Darmstadt, Germany) served as positive control for the inhibition of TcdB-autoprocessing. The reactions were stopped by addition of a Laemmli buffer and heat denaturation (95 °C). For the analysis, the samples were electrophoresed on 8% SDS polyacrylamide gels, and proteins were visualized by Coomassie staining.
# zebrafish embryos = conditions: in vivo
# TcdB glucosyltransferase = experiment: UDP-Glo glucosyltransferase assay; format: biochemical, C. difficile VPI 10463; conditions: TcdB 200 pM, recombinant Rac1 5 µM, UDP-glucose 100 µM, 1 h, 37 °C, pH 7.5, luminescence (n ≥ 3)
# Method: as §2
# UDP-Glo™ Glucosyltransferase assay with UDP-Glucose (Promega Corporation, Madison, WI, USA) was performed according to the manufacturer’s protocol. Briefly, TcdB (200 pM) was incubated in glucosylation buffer (50 mM HEPES, 100 mM KCl, 2 mM MgCl2, 1 mM MnCl2, 100 mg/L BSA, pH 7.5) with various concentrations of the respective inhibitors in a final volume of 40 µL. 5 µM recombinant Rac1 was included in the samples as a substrate. […] Castanospermine (10 mM, Santa Cruz Biotechnology, Dallas, TX, USA) served as control for inhibition of glucosyltransferase activity of TcdB. To stop the reaction, three times 10 µL of each sample were transferred to a white half area 96 well microplate (Greiner Bio-One International GmbH, Kremsmünster, Austria) combined with 10 µL of UDP Detection Reagent and mixed at 1000 rpm for 30 s on a plate shaker (Titramax 1000, Heidolph Instruments GmbH & Co. KG, Schwabach, Germany). Luminescence was recorded after 15–60 min via a Tecan infinite M1000 Pro plate reader (Tecan, Männdorf, Switzerland) with an integration time of 750 ms.
# bacteria = conditions: ref [46]; cited from earlier work
# Excerpt: as §1, with “TcdB. […] The administration” for “TcdB. Here,”, “of α-def-6 protected human cells from TcdB, but also from” for “of particular interest is”, “the closely related TcdA and the clinically more relevant combination of both TcdA and TcdB. Exemplarily, the protective effect could be confirmed for TcdB in vivo using the zebrafish embryo” for “the group”
# TcdB [3] = conditions: ref [24]; cited from earlier work
molecule,measurement,setting,value
"α-defensin-1: human neutrophil peptide 1, α-defensin cited from earlier work [reference compound]","inactivation of TcdA, TcdB and CDT","TcdA, TcdB and CDT","inactivate TcdA and CDT, in addition to TcdB"
same,destabilization of toxin secondary and tertiary structures (local unfolding),bacterial protein toxins,leads to the destabilization of secondary and tertiary structures
β-def-1: β-defensin used as control to exclude non-specific interactions; purchased from Pepta Nova (DHYNCVSSGGQCLYSACPIFTKIQGTCYRGKAKCCK; ends and bridges not checked; cysteine pairing not given here) [reference compound],"interaction with immobilized TcdB, compared to α-def-6",TcdB [1],much weaker in combination with a faster washout
same,interaction with bacterial toxins including TcdB,[2],do not interact with bacterial toxins including TcdB
O[C@H]1[C@H](O)[C@@H](O)CN2CC[C@H](O)[C@H]12 [castanospermine],inhibition of glucosyltransferase,glucosyltransferase,established glucosyltransferase inhibitor
"CCN1C(=O)C=CC1=O [NEM, N-ethylmaleimide, reference compound]",autocatalytic processing of TcdB (effect of control inhibitor),TcdB autoprotease domain,prevented the autocatalytic processing of TcdB
Abamectin [reference compound],neurotoxicity,zebrafish embryos,causes neurotoxicity
"α-def-5: structurally similar defensin; purchased from Pepta Nova (peptide, UniProt Q01523 20-94, looked up, Defensin-5, structurally similar defensin; purchased from Pepta Nova) Defensin alpha 5: ESLQERADEATTQKQSGEDNQDLAISFAGNGLSALRTSGSQARATCYCRTGRCATRESLSGVCEISGRLYRLCCR",inhibition of glucosyltransferase activity of TcdB,TcdB glucosyltransferase,clear concentration-dependent reduction of glucosyltransferase activity
same,"inactivation of TcdA, TcdB and CDT","TcdA, TcdB and CDT","inactivate TcdA and CDT, in addition to TcdB"
same,biocidal / antimicrobial activity,bacteria,significant biocidal activity against invading pathogens
same,inhibition of glucosyltransferase and glucosylhydrolase activity of TcdB,TcdB [3],directly inhibits the glucosyltransferase and glucosylhydrolase activity of TcdB
